Bridge positions count the residues as written; N and C are the ends. Peptide text beside a SMILES is read from it.
How the values were obtained:
[1] = system: bovine adrenal chromaffin cells; assay type: cell-based
[2] = target: endoproteinase Glu-C (Endo Glu-C) (Staphylococcus aureus, UniProt P0C1U8); details: pH 8
[3] = in vitro; details: human, plasma

Chain of endoproteinase Glu-C (Endo Glu-C) (P0C1U8 69-336 limits assumed): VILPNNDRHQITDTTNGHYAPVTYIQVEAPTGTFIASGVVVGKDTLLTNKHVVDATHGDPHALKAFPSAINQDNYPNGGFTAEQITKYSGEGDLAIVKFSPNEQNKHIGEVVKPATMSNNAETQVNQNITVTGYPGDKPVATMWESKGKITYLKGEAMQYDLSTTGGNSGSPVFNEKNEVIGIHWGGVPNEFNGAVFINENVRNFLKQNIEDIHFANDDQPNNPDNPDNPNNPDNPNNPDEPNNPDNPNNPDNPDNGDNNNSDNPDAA

| SMILES | inhibition of nicotine-evoked catecholamine release, activity relative to linear MII [1] | intact peptide remaining on incubation with Endo-GluC [2] | remaining at 24 h [3] [%] | stability in human plasma relative to MII |
| --- | --- | --- | --- | --- |
| CC(C)C[C@@H]1NC(=O)[C@H](CC(N)=O)NC(=O)[C@H](CO)NC(=O)[C@H](Cc2c[nH]cn2)NC(=O)[C@H](CCC(=O)O)NC(=O)[C@H](CC(C)C)NC(=O)[C@H](Cc2c[nH]cn2)NC(=O)[C@@H]2CSSC[C@@H]3NC(=O)CNC(=O)CNC(=O)[C@H](C)NC(=O)[C@H](C)NC(=O)CNC(=O)[C@H](C)NC(=O)CNC(=O)CNC(=O)[C@H](CSSC[C@H](NC3=O)C(=O)N[C@@H](CO)C(=O)N[C@@H](CC(N)=O)C(=O)N3CCC[C@H]3C(=O)N[C@@H](C(C)C)C(=O)N2)NC1=O [cMII-7] (cyclo(AAGGCCSNPVCHLEHSNLCGGAG); disulfide 5-11, 6-19) | comparable to linear MII | remain entirely intact | ~90 | dramatically greater than MII |
| CC(C)C[C@@H]1NC(=O)[C@H](CC(N)=O)NC(=O)[C@H](CO)NC(=O)[C@H](Cc2c[nH]cn2)NC(=O)[C@H](CCC(=O)O)NC(=O)[C@H](CC(C)C)NC(=O)[C@H](Cc2c[nH]cn2)NC(=O)[C@@H]2CSSC[C@@H]3NC(=O)CNC(=O)CNC(=O)CNC(=O)[C@H](C)NC(=O)[C@H](C)NC(=O)CNC(=O)CNC(=O)[C@H](CSSC[C@H](NC3=O)C(=O)N[C@@H](CO)C(=O)N[C@@H](CC(N)=O)C(=O)N3CCC[C@H]3C(=O)N[C@@H](C(C)C)C(=O)N2)NC1=O [cMII-6] (cyclo(AAGGGCCSNPVCHLEHSNLCGG); disulfide 6-12, 7-20) | comparable to linear MII | remain entirely intact | ~90 | dramatically greater than MII |
